Measured values published in BindingDB's records for doi:10.1016/j.bmcl.2021.128008 (National Institute of Diabetes and Digestive and Kidney …, 2021).

Molecular target: D(1B) dopamine receptor (Homo sapiens, UniProt P21918)
Experiment: Inhibition of dopamine D5 receptor (unknown origin)

D(1B) dopamine receptor, sequence (P21918 whole entry): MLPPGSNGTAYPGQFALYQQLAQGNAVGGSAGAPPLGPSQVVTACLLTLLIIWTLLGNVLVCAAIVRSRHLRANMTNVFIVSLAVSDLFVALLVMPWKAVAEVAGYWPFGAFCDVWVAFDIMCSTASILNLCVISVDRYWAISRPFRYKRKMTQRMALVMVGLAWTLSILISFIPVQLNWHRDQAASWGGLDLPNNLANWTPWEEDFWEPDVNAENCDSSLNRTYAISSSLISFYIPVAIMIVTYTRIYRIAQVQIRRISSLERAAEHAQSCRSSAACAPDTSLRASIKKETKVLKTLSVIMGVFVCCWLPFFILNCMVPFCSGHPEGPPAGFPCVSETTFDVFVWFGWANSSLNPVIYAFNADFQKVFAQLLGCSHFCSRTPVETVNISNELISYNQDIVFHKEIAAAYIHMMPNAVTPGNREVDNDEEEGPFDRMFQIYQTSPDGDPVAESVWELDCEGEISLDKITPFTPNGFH

## CC(C)(C)C#Cc1ccc2c(c1)C=C([N+](=O)[O-])C(C(F)(F)F)O2 (stereo unspecified)
  Ki: 2.1 µM
